The NIST ThermoML archive (doi:10.1016/j.fluid.2012.11.006)
“And” between values parts separate entries of the source, which are not always exact repeats. Equal entries are not always repeated.

How the values were obtained:
[1] = molar enthalpy of transition or fusion; conditions: Crystal, DSC
[2] = Molar enthalpy of transition or fusion; conditions: Crystal; DSC
[3] = molar heat capacity at constant pressure; conditions: 101.33 kPa, Crystal, Flow calorimetry
[4] = molar enthalpy of vaporization or sublimation

O=C(O)c1cc(Br)ccc1Br [2,5-dibromobenzoic acid]
Conditions | vapor or sublimation pressure [kPa]
346.8 K, Crystal, Torsion effusion method | 4.7e-05
348.6 K, Crystal, Torsion effusion method | 5.7e-05
350 K, Crystal, Torsion effusion method | 7.6e-05
350.2 K, Crystal, Torsion effusion method | 7.6e-05
352.2 K, Crystal, Torsion effusion method | 9.5e-05
353 K, Crystal, Torsion effusion method | 0.000114
353.5 K, Crystal, Torsion effusion method | 0.000114
353.6 K, Crystal, Torsion effusion method | 0.000114
354.3 K, Crystal, Torsion effusion method | 0.000133
354.8 K, Crystal, Torsion effusion method | 0.000133
356.1 K, Crystal, Torsion effusion method | 0.000171
356.2 K, Crystal, Torsion effusion method | 0.000152
356.8 K, Crystal, Torsion effusion method | 0.000171
357.3 K, Crystal, Torsion effusion method | 0.000189
357.8 K, Crystal, Torsion effusion method | 0.000208
358.3 K, Crystal, Torsion effusion method | 0.000208
359.2 K, Crystal, Torsion effusion method | 0.000246
359.6 K, Crystal, Torsion effusion method | 0.000227
360.2 K, Crystal, Torsion effusion method | 0.000246
360.4 K, Crystal, Torsion effusion method | 0.000265
361.5 K, Crystal, Torsion effusion method | 0.000303
361.7 K, Crystal, Torsion effusion method | 0.000303
362.4 K, Crystal, Torsion effusion method | 0.00036
362.5 K, Crystal, Torsion effusion method | 0.000322
363 K, Crystal, Torsion effusion method | 0.000379
363.8 K, Crystal, Torsion effusion method | 0.000388
364.6 K, Crystal, Torsion effusion method | 0.000493
364.7 K, Crystal, Torsion effusion method | 0.000474
365.6 K, Crystal, Torsion effusion method | 0.000474
366.2 K, Crystal, Torsion effusion method | 0.000493
367.3 K, Crystal, Torsion effusion method | 0.000606
367.6 K, Crystal, Torsion effusion method | 0.000701
367.7 K, Crystal, Torsion effusion method | 0.000682
369.1 K, Crystal, Torsion effusion method | 0.000777
369.7 K, Crystal, Torsion effusion method | 0.000834
370.5 K, Crystal, Torsion effusion method | 0.000853
370.7 K, Crystal, Torsion effusion method | 0.000947
371.2 K, Crystal, Torsion effusion method | 0.001023
372.3 K, Crystal, Torsion effusion method | 0.001099
373 K, Crystal, Torsion effusion method | 0.001175
373.5 K, Crystal, Torsion effusion method | 0.001213
373.7 K, Crystal, Torsion effusion method | 0.00127
375.4 K, Crystal, Torsion effusion method | 0.001516
376.8 K, Crystal, Torsion effusion method | 0.001914
376.9 K, Crystal, Torsion effusion method | 0.001762
440.2 K, Liquid, non-isothermal thermogravimetric | 0.643
440.5 K, Liquid, non-isothermal thermogravimetric | 0.663
441.3 K, Liquid, non-isothermal thermogravimetric | 0.731
442.1 K, Liquid, non-isothermal thermogravimetric | 0.732
443.1 K, Liquid, isothermal thermogravimetric | 0.819
444 K, Liquid, isothermal thermogravimetric | 0.821
444.1 K, Liquid, isothermal thermogravimetric | 0.835
444.1 K, Liquid, non-isothermal thermogravimetric | 0.844
444.6 K, Liquid, non-isothermal thermogravimetric | 0.841
444.8 K, Liquid, isothermal thermogravimetric | 0.822
445.4 K, Liquid, non-isothermal thermogravimetric | 0.919
446.3 K, Liquid, non-isothermal thermogravimetric | 0.924
447 K, Liquid, isothermal thermogravimetric | 1.031
448.1 K, Liquid, isothermal thermogravimetric | 1.01
448.3 K, Liquid, isothermal thermogravimetric | 1.044
448.3 K, Liquid, non-isothermal thermogravimetric | 1.04
448.7 K, Liquid, isothermal thermogravimetric | 1.012
448.8 K, Liquid, non-isothermal thermogravimetric | 1.066
449.2 K, Liquid, non-isothermal thermogravimetric | 1.146
450.1 K, Liquid, non-isothermal thermogravimetric | 1.151
451.2 K, Liquid, isothermal thermogravimetric | 1.291
452 K, Liquid, non-isothermal thermogravimetric | 1.302
452.1 K, Liquid, isothermal thermogravimetric | 1.259
452.3 K, Liquid, isothermal thermogravimetric | 1.306
452.9 K, Liquid, isothermal thermogravimetric | 1.282
452.9 K, Liquid, non-isothermal thermogravimetric | 1.335
453.1 K, Liquid, non-isothermal thermogravimetric | 1.404
454.2 K, Liquid, non-isothermal thermogravimetric | 1.429
455.1 K, Liquid, isothermal thermogravimetric | 1.608
456.1 K, Liquid, isothermal thermogravimetric | 1.617
456.2 K, Liquid, isothermal thermogravimetric | 1.573
456.3 K, Liquid, non-isothermal thermogravimetric | 1.578
456.7 K, Liquid, non-isothermal thermogravimetric | 1.622
456.8 K, Liquid, isothermal thermogravimetric | 1.602
457.1 K, Liquid, non-isothermal thermogravimetric | 1.739
458.2 K, Liquid, non-isothermal thermogravimetric | 1.752
459.3 K, Liquid, isothermal thermogravimetric | 1.974
460 K, Liquid, isothermal thermogravimetric | 1.91
460.1 K, Liquid, non-isothermal thermogravimetric | 1.931
460.3 K, Liquid, isothermal thermogravimetric | 1.994
460.6 K, Liquid, non-isothermal thermogravimetric | 1.967
461 K, Liquid, isothermal thermogravimetric | 1.945
461.2 K, Liquid, non-isothermal thermogravimetric | 2.111
462.1 K, Liquid, non-isothermal thermogravimetric | 2.123
463.1 K, Liquid, isothermal thermogravimetric | 2.39
464.1 K, Liquid, isothermal thermogravimetric | 2.401
464.2 K, Liquid, non-isothermal thermogravimetric | 2.396
464.3 K, Liquid, isothermal thermogravimetric | 2.319
464.8 K, Liquid, isothermal thermogravimetric | 2.362
464.8 K, Liquid, non-isothermal thermogravimetric | 2.456
465.4 K, Liquid, non-isothermal thermogravimetric | 2.637
466.2 K, Liquid, non-isothermal thermogravimetric | 2.643
467 K, Liquid, isothermal thermogravimetric | 2.886
467.1 K, Liquid, isothermal thermogravimetric | 2.776
468.1 K, Liquid, non-isothermal thermogravimetric | 2.879
468.2 K, Liquid, isothermal thermogravimetric | 2.931
468.5 K, Liquid, non-isothermal thermogravimetric | 2.897
468.7 K, Liquid, isothermal thermogravimetric | 2.855

Conditions | Normal melting temperature [°C] | molar enthalpy of transition or fusion [kJ/mol] | molar heat capacity at constant pressure
Crystal, DTA | 155 | – | –
[1], 298.15 K | – | 132 | –
[1], 428 K | – | 128 | –
[3], 288.2 K | – | – | 216 J/K/mol and 215.9 J/K/mol
[3], 290.2 K | – | – | 217.4 J/K/mol and 217.6 J/K/mol and 217.5 J/K/mol
[3], 292.2 K | – | – | 219.4 J/K/mol and 219.3 J/K/mol
[3], 294.2 K | – | – | 220.4 J/K/mol and 220.6 J/K/mol and 220.5 J/K/mol
[3], 296.2 K | – | – | 221.5 J/K/mol and 221.4 J/K/mol and 221.7 J/K/mol
[3], 298.2 K | – | – | 222.9 J/K/mol and 223 J/K/mol and 223.1 J/K/mol
[3], 300.2 K | – | – | 224.7 J/K/mol and 224.8 J/K/mol
[3], 302.2 K | – | – | 225.9 J/K/mol and 225.6 J/K/mol and 225.8 J/K/mol
[3], 304.2 K | – | – | 227 J/K/mol and 227.3 J/K/mol and 227.1 J/K/mol
[3], 306.2 K | – | – | 228.3 J/K/mol and 228.4 J/K/mol and 228.5 J/K/mol
[3], 308.2 K | – | – | 229.8 J/K/mol and 229.6 J/K/mol
[3], 310.2 K | – | – | 231.7 J/K/mol and 231.6 J/K/mol and 231.5 J/K/mol
[3], 312.2 K | – | – | 232.5 J/K/mol and 232.4 J/K/mol and 232.3 J/K/mol
[3], 314.2 K | – | – | 234 J/K/mol and 233.9 J/K/mol and 234.1 J/K/mol
[3], 316.2 K | – | – | 235.3 J/K/mol and 235.2 J/K/mol
[3], 318.2 K | – | – | 237 J/K/mol and 236.8 J/K/mol and 236.9 J/K/mol
[3], 320.2 K | – | – | 238.4 J/K/mol and 238.5 J/K/mol and 238.3 J/K/mol
[3], 322.2 K | – | – | 239.1 J/K/mol and 239 J/K/mol
[3], 324.2 K | – | – | 240.7 J/K/mol and 240.5 J/K/mol and 240.4 J/K/mol
[3], 326.2 K | – | – | 242.4 J/K/mol and 242.1 J/K/mol and 242.3 J/K/mol

Conditions | Molar enthalpy of transition or fusion [kJ/mol]
[2] | 36.7

[4]
Conditions | molar enthalpy [kJ/mol]
298.15 K, Crystal, Torsion-effucion | 134
428 K, Liquid, DSC | 92.7
